{"source": "patent US20240415869A1", "about": "“COMPOSITIONS, SYSTEMS, AND METHODS FOR TREATING CANCER USING TUMOR TREATING FIELDS (TTFIELDS) AND THIOREDOXIN/GLUTATHIONE INHIBITORS” (Novocure GmbH G, priority 2023, published 2024)", "key": {"glutathione reductase": {"target": "T1, glutathione reductase (Homo sapiens, UniProt P00390)", "T1 sequence (P00390 44-522)": "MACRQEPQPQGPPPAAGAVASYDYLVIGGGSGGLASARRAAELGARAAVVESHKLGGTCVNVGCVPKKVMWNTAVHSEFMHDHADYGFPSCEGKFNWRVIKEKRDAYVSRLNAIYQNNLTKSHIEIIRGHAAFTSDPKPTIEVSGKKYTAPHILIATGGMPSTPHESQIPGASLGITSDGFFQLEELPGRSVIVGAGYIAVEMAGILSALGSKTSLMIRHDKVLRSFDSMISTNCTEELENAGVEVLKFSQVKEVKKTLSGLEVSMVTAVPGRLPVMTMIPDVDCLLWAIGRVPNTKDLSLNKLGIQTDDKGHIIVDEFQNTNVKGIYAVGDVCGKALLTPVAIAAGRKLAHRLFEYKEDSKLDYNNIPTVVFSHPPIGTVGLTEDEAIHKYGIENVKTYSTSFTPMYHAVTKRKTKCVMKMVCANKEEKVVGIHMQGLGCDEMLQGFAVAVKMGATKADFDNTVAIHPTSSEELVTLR", "settings": "irreversible inhibitor; cited from earlier work"}, "[1]": {"system": "glioblastoma stem cells (GSCs)", "test": "Auranofin plus TTFields in glioblastoma stem cells (Example 2)", "assay_type": "cell-based", "settings": "combined with TTFields", "protocol": "In vitro—To assess the effect of this trimodal therapy, GSCs are exposed to AU (auranofin, 0.50 μM), RT (3 Gy), TTFields, TTFields+AU, TTFields+RT, and the combination of all three treatments (AU+RT+TTFields). The GSCs are assessed for the following: (i) a neurosphere formation assay; (ii) ROS Intracellular levels; (iii) MitoTracker™ assessment of mitochondrial membrane potential; and (iv) TrXR1 and GSH activity assays.\nIn vivo—To further investigate the effect of ROS-inducing trimodal therapy (RT+AU+TTFields) in vivo, subcutaneous injections of GSCs 1123S and 528 stably transduced with luciferase are performed. GCSs are injected (3×10^5 cells 10 μl) to the right flank of mice. Treatment is started when tumors can be visualized by BLI upon injection of D-luciferin substrate. Blood is collected to monitor potential toxicities. The tumor is exposed to snap-freezing and then processed for WB and for tissue formalin fixation for further IHC analysis of p53, MGMT, and TrxR1-associated genes."}, "[2]": {"system": "glioblastoma stem cells (GSCs)", "settings": "cited from earlier work"}, "GBM cell lines": {"system": "GBM cell lines", "settings": "cited from earlier work"}, "GSCs and GBM cell lines": {"system": "GSCs and GBM cell lines", "settings": "lower IC50s for GSCs compared to GBM cell lines; cited from earlier work"}, "GBM cell lines and GSCs": {"system": "GBM cell lines and GSCs", "settings": "cited from earlier work"}, "wild-type human TrxR1": {"target": "T2, wild-type human TrxR1 (Homo sapiens, UniProt Q16881)", "T2 sequence (Q16881 151-649 limits assumed)": "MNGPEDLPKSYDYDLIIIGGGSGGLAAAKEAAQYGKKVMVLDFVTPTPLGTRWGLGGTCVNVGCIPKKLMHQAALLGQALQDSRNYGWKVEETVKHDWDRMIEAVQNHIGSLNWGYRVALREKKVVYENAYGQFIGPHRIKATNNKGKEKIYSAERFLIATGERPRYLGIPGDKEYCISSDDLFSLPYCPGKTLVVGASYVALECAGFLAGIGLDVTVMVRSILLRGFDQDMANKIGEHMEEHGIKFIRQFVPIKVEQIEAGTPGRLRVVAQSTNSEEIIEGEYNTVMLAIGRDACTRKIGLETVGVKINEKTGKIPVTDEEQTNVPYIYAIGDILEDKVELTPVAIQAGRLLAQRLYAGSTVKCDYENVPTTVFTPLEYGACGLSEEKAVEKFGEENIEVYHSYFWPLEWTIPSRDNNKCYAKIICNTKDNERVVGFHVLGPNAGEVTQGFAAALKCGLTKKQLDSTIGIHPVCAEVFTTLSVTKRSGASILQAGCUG", "settings": "cited from earlier work"}, "[3]": {"target": "T3, glutathione peroxidase 4 (GPX4) (Homo sapiens, UniProt P36969)", "T3 sequence (P36969 1-197)": "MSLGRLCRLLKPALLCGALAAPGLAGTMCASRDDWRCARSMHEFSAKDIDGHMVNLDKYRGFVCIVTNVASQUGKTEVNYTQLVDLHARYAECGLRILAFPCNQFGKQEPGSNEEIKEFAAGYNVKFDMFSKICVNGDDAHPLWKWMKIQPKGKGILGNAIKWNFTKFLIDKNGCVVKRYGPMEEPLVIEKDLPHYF", "settings": "selective and covalent inhibitor; cited from earlier work"}, "[4]": {"target": "T4, cytosolic thioredoxin reductase 1 (TXNRD1) (Homo sapiens, UniProt Q16881)", "T4 sequence (Q16881 151-649 limits assumed)": "T2 sequence (Q16881 151-649 limits assumed)", "settings": "irreversible inhibitor; cited from earlier work"}, "mitochondrial toxicity": {"system": "mitochondrial toxicity", "settings": "cited from earlier work"}, "cancer cells": {"system": "cancer cells", "settings": "piperlongumine combined with erastin; cited from earlier work"}}, "data": [{"smiles": "N[C@@H](CCC(=O)N[C@@H](CSc1ccc([N+](=O)[O-])cc1[N+](=O)[O-])C(=O)NCC(=O)O)C(=O)O", "note": "[(2,4-Dinitrophenyl)glutathione, S-(2,4-Dinitrophenyl)glutathione]", "values": [{"measurement": "Ki", "setting": "glutathione reductase", "result": 30000, "unit": "nM"}]}, {"smiles": "CC(=O)OC[C@H]1O[C@@H]([S-])[C@H](OC(C)=O)[C@@H](OC(C)=O)[C@@H]1OC(C)=O.CCP(CC)CC.[Au+]", "note": "[Auranofin]", "values": [{"measurement": "effect of combination of Auranofin and TTFields", "setting": "[1]", "result": "synergistic effect"}, {"measurement": "neurosphere formation ability", "setting": "[2]", "result": "decreased"}, {"measurement": "clonogenic potential", "setting": "GBM cell lines", "result": "decreased"}, {"measurement": "cell survival", "setting": "GSCs and GBM cell lines", "result": "decreased"}, {"measurement": "intracellular ROS", "setting": "GBM cell lines and GSCs; GBM cell lines and GSCs, auranofin alone", "result": "significantly increases"}, {"measurement": "ROS, combination with radiation therapy", "setting": "GBM cell lines and GSCs; GSCs, auranofin with RT", "result": "synergistically increases"}]}, {"smiles": "O=c1c2ccccc2[se]n1CCn1[se]c2ccccc2c1=O", "note": "[Ethaselen, 1,2-[bis(1,2-benzisoselenazolone-3 (2H)-ketone)]ethane]", "values": [{"measurement": "IC50", "setting": "wild-type human TrxR1", "result": 500, "unit": "nM"}]}, {"smiles": "Cc1onc(C(=O)N2CCN(C(c3ccc(Cl)cc3)c3ccc(Cl)cc3)CC2)c1[N+](=O)[O-]", "note": "[ML-210]", "values": [{"measurement": "EC50", "setting": "[3]", "result": 30, "unit": "nM"}]}, {"smiles": "COc1ccc([N+](=O)[O-])c(S(=O)(=O)c2ccc(Cl)cc2)n1", "note": "[TRi-1]", "values": [{"measurement": "IC50", "setting": "[4]", "result": 12, "unit": "nM"}, {"measurement": "mitochondrial toxicity", "setting": "mitochondrial toxicity", "result": "little mitochondrial toxicity for anticancer therapy."}]}, {"smiles": "COc1cc(/C=C/C(=O)N2CCC=CC2=O)cc(OC)c1OC", "note": "[piperlongumine]", "values": [{"measurement": "effect of combination over either treatment alone", "setting": "cancer cells", "result": "synergistic effect"}]}]}
